The source of these data is patent US20020188022A1, “Methods for modulation, stimulation, and inhibition of glutamate reuptake” (Annovis. Inc., priority 2000, published 2002).

Read-outs that look alike come from different tables or passages of the source.

For data set [1], the target named is T1, Glial Glutamate Transporter (GLAST and GLT1).
T1 construct: Bmax; other: 20 nM [3H]-4MG, 4° C; KD
Briefly: Binding of [3H]-4MG to rat forebrain membrane homogenates in Na+-containing HEPES buffer. Conditions: for Displacement of 4MG binding: at or above 100 μM, FIG. 5. Here is the method:
(§1) Forebrain tissue from female Sprague Dawley rats was homogenized in HEPES buffer containing Na^+, and membranes were washed twice in the same buffer. Binding experiments were also performed in this buffer. Initial studies determined appropriate parameters for time (15 minutes incubation at 4° C.) and drug concentration (20 nM [^3H]-4MG) to be used in subsequent experiments. Following incubation of [^3H]-4MG with or without other compounds, binding was terminated by rapid filtration through Whatman GF/B filter discs and washing 3 times with buffer using a Brandel cell harvester. Binding was determined by scintillation spectrometry. A full range of association, dissociation, saturation and inhibition studies was performed over varying incubation times (up to 60 min). Data were analysed using computer-assisted curve fitting. Values are expressed as mean of at least triplicate determinations and multiple experiments.
(§2) A full range of association, dissociation, saturation and inhibition studies was performed over varying incubation times (up to 60 min). Data were analysed using computer-assisted curve fitting. Values cited are expressed as mean of at least triplicate determinations and multiple experiments.

The test system of data set [2] is Glial Glutamate Transporter (GLAST and GLT1). The data set is described as above. Conditions: FIG. 5. Here is the method:
as §1, §2

A short description of data set [3]: Hydrolysis of prodrug to the acid form. Type of data set: in vitro ADME. The text has this:
(§3) The ester, carbonate, and amine bond in any prodrug forms of compounds identified by the disclosed method can be readily cleaved in vivo. Therefore, prodrug compositions can be hydrolyzed to the corresponding acid forms in plasma.

The next data set in a line: Analgesic effect test. It is filed as in vivo. Conditions: compared with 1.
Source text: as §3

Data set [4] is described as follows: Bioavailability and half-life of prodrug. It is filed as in vivo. To be noted: compared with 1.
Source text: as §3

The mark [5] stands for this setting: 20 nM [3H]-4MG, 4° C., read-out: Displacement of 4MG binding to rat brain membrane homogenates, IC50.

For `C[C@H](C[C@H](N)C(=O)O)C(=O)O` [4MG, (2S,4R)-4-methylglutamate], in data set [1], the Kd (in general, the equilibrium constant for the complex coming apart) amounted to 5.4 µM. Moreover, in data set [1] (read-out: Displacement of 4MG binding to rat brain membrane homogenates, IC50), the IC50 (in general, the concentration at which inhibition is half-maximal) amounted to 6.7 µM.

Consider `Cc1onc(O)c1CC(N)C(=O)O` (stereo not drawn) [AMPA, α-amino-3-hydroxy-5-methyl-4-isoxazolepropionate], for which the “Displacement of 4MG binding” value in data set [1] is “failed to significantly displace”.

`CC(C)(C)c1o[nH]c(=O)c1CC(N)C(=O)O` (stereo not drawn) [ATPA]: in data set [2], the “Effect on 4MG and/or D-aspartate binding to GluTs” value (shortened to “Effect … to GluTs”) is “failed to affect”.

For `N[C@H](C(=O)O)[C@H]1C[C@H]1C(=O)O` [CCG-III, (2S,3S,4R)-2-(carboxycyclopropyl)glycine], the IC50 in data set [1] (setting [5]) is 1.2 µM.

With `N[C@H](CC(=O)O)C(=O)O` [D-aspartate], the IC50 in data set [1] (setting [5]) came out at 10.9 µM.

`N[C@@H](Cn1cc(F)c(=O)[nH]c1=O)C(=O)O` [FW, fluorowillardiine]: the “Displacement of 4MG binding” value in data set [1] is “failed to significantly displace”.

Consider `NCCCC(=O)O` [GABA, γ-aminobutyric acid], for which the “Effect … to GluTs” value in data set [2] was “failed to affect”.

For the compound `NCC(=O)O` [GLY, glycine], the “Effect … to GluTs” value in data set [2] was “failed to affect”.

As to `N[C@@H](Cn1cc(I)c(=O)[nH]c1=O)C(=O)O` [IW, iodowillardine], the “Effect … to GluTs” value in data set [2] is reported as “failed to affect”.

Regarding `N[C@@H](CC(=O)O)C(=O)O` [L-aspartate], in data set [1] (setting [5]), the IC50 was determined as 7.5 µM.

Regarding `CN[C@H](CC(=O)O)C(=O)O` [NMDA, N-methyl-D-aspartate], the “Displacement of 4MG binding” value in data set [1] is “failed to significantly displace”.

On to `O=C(O)[C@H]1CN[C@H](C(=O)O)C1` [PDC, L-trans-pyrrolidine-2,4-dicarboxylate], for which the IC50 in data set [1] (setting [5]) worked out at 2.9 µM.

As to `N[C@@H](COS(=O)(=O)O)C(=O)O` [SOS, L-serine-O-sulphate], the IC50 in data set [1] (setting [5]) was 40 µM.

As to `C[C@H](C[C@H](N)C(=O)O)C(=O)O` [SYM 2081], in data set [1] (Table 2, read-out: Inhibition of Binding of [3H]-4MG to Glial Glutamate Transporter, IC50), the IC50 worked out at 29 µM.

As for `COC(=O)[C@H](C)C[C@H](N)C(=O)OC` [compound 2, (2S,4R)-4-methyl glutamic acid dimethyl ester], in data set [3], the “Hydrolysis to (2S,4R)-4-methyl glutamic acid (1)” value was “readily hydrolyzed”. The Analgesic effect entry in the data set “Analgesic effect test” is “analgesic effect similar to 1”. For the same compound, in data set [4], the Bioavailability result is “enhanced bioavailability” and the Half-life result is recorded as “longer half-life”.

Take `N[C@@H](CCC(=O)O)C(=O)O` [glutamate, L-glutamic acid]: the IC50 in data set [1] (setting [5]) was 6.1 µM.

Take “L-anti-endo-3,4-methanopyrrolidine dicarboxylate [MPDC]”: in data set [1] (setting [5]), the IC50 amounted to 4 µM.
